For 25 compounds, IC50 results are on record in patent publication US12029739B2, “SHP2 inhibitor and use thereof” (KANAPH THERAPEUTICS INC., priority 2021, dated 2024).

Like-named read-outs stand apart in the source and are kept apart here.

Test [1] addresses T1, SHP2 (full length) (Homo sapiens, UniProt Q06124).
T1 construct: SHP2 (full length, diluted to 100 pM final concentration in reaction buffer, BPS bioscience, US); purchased BPS bioscience, US
T1 sequence (Q06124 1-593): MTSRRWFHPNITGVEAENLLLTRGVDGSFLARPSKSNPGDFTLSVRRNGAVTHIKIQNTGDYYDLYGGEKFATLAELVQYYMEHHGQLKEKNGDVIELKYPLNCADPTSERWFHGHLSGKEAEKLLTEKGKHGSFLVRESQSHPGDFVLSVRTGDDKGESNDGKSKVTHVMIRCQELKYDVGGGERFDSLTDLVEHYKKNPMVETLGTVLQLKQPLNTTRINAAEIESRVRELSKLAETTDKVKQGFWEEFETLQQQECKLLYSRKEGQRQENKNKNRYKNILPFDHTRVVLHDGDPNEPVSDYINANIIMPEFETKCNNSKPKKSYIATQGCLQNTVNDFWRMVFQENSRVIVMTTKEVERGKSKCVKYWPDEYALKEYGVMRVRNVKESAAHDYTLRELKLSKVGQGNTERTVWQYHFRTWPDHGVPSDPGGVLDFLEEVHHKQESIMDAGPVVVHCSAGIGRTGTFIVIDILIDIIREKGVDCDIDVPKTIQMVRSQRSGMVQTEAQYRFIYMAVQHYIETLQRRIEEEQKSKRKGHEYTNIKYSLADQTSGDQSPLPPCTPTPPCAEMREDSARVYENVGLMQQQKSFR
The test can be described thus: Phosphatase assay (PTPase assay) with DiFMUP substrate. It is filed as biochemical. Particulars: SHP2 activated with SHP2 activating peptide, DiFMUP 80 μM, 2 hours, fluorescence.

In test [2] the test system is phospho-ERK in MIA PaCa2 or H358 cells. The test can be described thus: Phospho-ERK assay (AlphaLisa). In kind it is cell-based.
[3] abbreviates: MIA PaCa2 or H358 cells, compound incubated 1.5 hours, read-out: IC50 (p-ERK).
The mark [4] stands for this setting: 1.5 h, MIA PaCa2 or H358 cells, compound incubated 1.5 hours, read-out: IC50 (p-ERK).
The mark [5] stands for this setting: 1.5 h, read-out: IC50 (p-ERK, nM).

By IC50 is commonly meant the concentration at which inhibition is half-maximal. As to `C[C@@H]1OCC2(CCN(c3cnc(Sc4ccc5nc(Oc6ccccc6)[nH]c5c4Cl)cn3)CC2)[C@@H]1N` [Example 125], the figures for the IC50 in test [1] (read-out: IC50 (PTPase aS say)) and in test [2] (setting [3]) were less than 3 nM and less than 45 nM, respectively.
`C[C@@H]1OCC2(CCN(c3cnc(Sc4ccc5ncn(CC(F)(F)F)c(=O)c5c4Cl)cn3)CC2)[C@@H]1N` [Example 75, 6-((5-((3S,4S)-4-amino-3-methyl-2-oxa-8-azaspiro[4.5]decan-8-yl)pyrazin-2-yl)thio)-5-chloro-3-(2,2,2-trifluoroethyl)quinazolin-4(3H)-one]: the IC50 was in the range of 3 to 100 nM in test [1] (read-out: IC50 (PTPase aS say)) and 45 to 1500 nM in test [2] (setting [4]).
In the same order, the values of `COC(C)Cn1cnc2ccc(Sc3cnc(N4CCC5(CC4)Cc4ncccc4[C@H]5N)cn3)c(Cl)c2c1=O` (stereo partly drawn) [Example 142, 6-((5-((S)-5-amino-5,7-dihydrospiro[yclopenta[b]pyridine-6,4′-piperidin]-1′-yl)pyrazin-2-yl)thio)-5-chloro-3-(2-methoxypropyl)quinazolin-4(3H)-one] are less than 3 nM and less than 45 nM.
In the same order, the values of `C[C@@H]1OCC2(CCN(c3cnc(Sc4ccc5ncn(CCCF)c(=O)c5c4Cl)cn3)CC2)[C@@H]1N` [Example 77, 6-((5-((3S,4S)-4-amino-3-methyl-2-oxa-8-azaspiro[4.5]decan-8-yl)pyrazin-2-yl)thio)-5-chloro-3-(3-fluoropropyl)quinazolin-4(3H)-one] are less than 3 nM and less than 45 nM.
For the compound `C[C@@H]1OCC2(CCN(c3cnc(Sc4ccc5ncn(CC(O)CF)c(=O)c5c4Cl)cn3)CC2)[C@@H]1N` (stereo partly drawn) [Example 76, 6-((5-((3S,4S)-4-amino-3-methyl-2-oxa-8-azaspiro[4.5]decan-8-yl)pyrazin-2-yl)thio)-5-chloro-3-(3-fluoro-2-hydroxypropyl)quinazolin-4(3H)-one], the results for the IC50 in test [1] (read-out: IC50 (PTPase aS say)) and in test [2] (setting [4]) were 3 to 100 nM and 45 to 1500 nM, respectively.
The like results for `COCCn1cnc2ccc(Sc3cnc(N4CCC5(CC4)Cc4nc(Cl)sc4[C@@H]5N)cn3)c(Cl)c2c1=O` [Example 157, 6-[5-[(6R)-6-amino-2-chloro-spiro[4,6-dihydrocyclopenta[d]thiazole-5,4′-piperidin]-1′-yl]pyrazin-2-yl]sulfanyl-5-chloro-3-(2-methoxyethyl)quinazolin-4-one] were, in that order, 3 to 100 nM and 45 to 1500 nM.
For `C[C@@H]1OCC2(CCN(c3cnc(Sc4cccc(S(=O)(=O)F)c4Cl)cn3)CC2)[C@@H]1N` [Example 11, 3-((5-((3S,4S)-4-amino-3-methyl-2-oxa-8-azaspiro[4.5]decan-8-yl)pyrazin-2-yl)thio)-2-chlorobenzenesulfonyl fluoride], the IC50 was less than 3 nM in test [1] (IC50 (PTPase aS say, nM)) and less than 45 nM in test [2] (setting [5]).
Consider `COCCn1cnc2ccc(Sc3cnc(N4CCC5(CC4)CO[C@@H](C)[C@H]5N)n4ccnc34)c(Cl)c2c1=O` [Example 182, 6-((5-((3S,4S)-4-amino-3-methyl-2-oxa-8-azaspiro[4.5]decan-8-yl)imidazo[1,2-c]pyrimidin-8-yl)thio)-5-chloro-3-(2-methoxyethyl)quinazolin-4(3H)-one], for which the results for the IC50 in test [1] (read-out: IC50 (PTPase aS say)) and in test [2] (setting [3]) were 3 to 100 nM and 45 to 1500 nM, respectively.
Regarding `COc1ccc2c(c1)[C@@H](N)C1(CCN(c3cnc(Sc4ccc5ncn(CC(C)(C)O)c(=O)c5c4Cl)cn3)CC1)C2` [Example 162, (S)-6-((5-(1-amino-6-methoxy-1,3-dihydrospiro[indene-2,4′-piperidin]-1′-yl)pyrazin-2-yl)thio)-5-chloro-3-(2-hydroxy-2-methylpropyl)quinazolin-4(3H)-one], the IC50 in test [1] (read-out: IC50 (PTPase aS say)) is less than 3 nM.
As to `CC1(N)CCN(c2cnc(-c3cccc(Cl)c3Cl)c(N)n2)CC1` [SHP099, 6-(4-amino-4-methylpiperidin-1-yl)-3-(2,3-dichlorophenyl)pyrazin-2-amine, reference compound], the IC50 in test [2] (setting [5]) lay within 45 to 1500 nM.
In the case of `C[C@@H]1OCC2(CCN(c3cnc(Sc4ccc5ncn(Cc6ccon6)c(=O)c5c4Cl)cn3)CC2)[C@@H]1N` [Example 56, 6-((5-((3S,4S)-4-amino-3-methyl-2-oxa-8-azaspiro[4.5]decan-8-yl)pyrazin-2-yl)thio)-5-chloro-3-(isoxazol-3-ylmethyl)quinazolin-4(3H)-one], in test [1] (read-out: IC50 (PTPase aS say)), the IC50 was less than 3 nM.
As to `N[C@@H]1c2ccccc2CC12CCN(c1cnc(Sc3ccc4ncn(Cc5ccccc5)c(=O)c4c3Cl)cn1)CC2` [Example 99, (S)-6-((5-(1-amino-1,3-dihydrospiro(indene-2,4′-piperidin]-1′-yl)pyrazin-2-yl)thio)-3-benzyl-5-chloroquinazolin-4(3H)-one], the IC50 in test [1] (read-out: IC50 (PTPase aS say)) was less than 3 nM.
The same measure, in the same setting: the figure for `Cn1c(N2CCN(CCN)CC2)nc(N)c(Sc2ccnc(N)c2Cl)c1=O` [Example 192] is more than 100 nM.
For `C[C@@H]1OCC2(CCN(c3cnc(Sc4ccc5ncn(Cc6ccno6)c(=O)c5c4Cl)cn3)CC2)[C@@H]1N` [Example 57, 6-((5-((3S,4S)-4-amino-3-methyl-2-oxa-8-azaspiro[4.5]decan-8-yl)pyrazin-2-yl)thio)-5-chloro-3-(isoxazol-5-ylmethyl)quinazolin-4(3H)-one], the IC50 in test [1] (read-out: IC50 (PTPase aS say)) was less than 3 nM.
The same measure, in the same setting: the figure for `Cn1c(N2CCN(C[C@@H](N)Cc3ccncc3)CC2)nc(N)c(Sc2cccc(Cl)c2Cl)c1=O` [Example 187, (S)-6-amino-2-(4-(2-amino-3-(pyridin-4-yl)propyl)piperazin-1-yl)-5-((2,3-dichlorophenyl)thio)-3-methylpyrimidin-4(3H)-one] is more than 100 nM; for `C[C@@H]1OCC2(CCN(c3cnc(Sc4ccc5ncn(CC6CCCN6)c(=O)c5c4Cl)cn3)CC2)[C@@H]1N` (stereo partly drawn) [Example 54, 6-((5-((3S,4S)-4-amino-3-methyl-2-oxa-8-azaspiro[4.5]decan-8-yl)pyrazin-2-yl)thio)-5-chloro-3-(pyrrolidin-2-ylmethyl)quinazolin-4(3H)-one] it is 3 to 100 nM.
As for `C[C@@H]1OCC2(CCN(c3cnc(Sc4ccnc(N)c4Cl)c(N)n3)CC2)[C@@H]1N` [TNO155, (3S,4S)-8-(6-amino-5-((2-amino-3-chloropyridin-4-yl)thio)pyrazin-2-yl)-3-methyl-2-oxa-8-azaspiro[4.5]decan-4-amine, reference compound], the IC50 in test [2] (setting [3]) was less than 45 nM.
With `N[C@H]1c2cccnc2CC12CCN(c1cnc(Sc3ccc4ncn(Cc5ccccc5)c(=O)c4c3Cl)cn1)CC2` [Example 101, (R)-6-((5-(5-amino-5,7-dihydrospiro[cyclopenta[b]pyridine-6,4′-piperidin]-1′-yl)pyrazin-2-yl)thio)-3-benzyl-5-chloroquinazolin-4(3H)-one], in test [1] (read-out: IC50 (PTPase aS say)), the IC50 fell in the range of 3 to 100 nM.
As to `C[C@@H]1OCC2(CCN(c3cnc(Sc4ccc5ncn(CC6CCNC6)c(=O)c5c4Cl)cn3)CC2)[C@@H]1N` (stereo partly drawn) [Example 55, 6-((5-((3S,4S)-4-amino-3-methyl-2-oxa-8-azaspiro[4.5]decan-8-yl)pyrazin-2-yl)thio)-5-chloro-3-(pyrrolidin-3-ylmethyl)quinazolin-4(3H)-one], the IC50 in test [1] (read-out: IC50 (PTPase aS say)) was in the range of 3 to 100 nM.
As for `C[C@@H]1OCC2(CCN(c3cnc(Sc4ccnc(C(=O)NCc5ccccc5)c4Cl)cn3)CC2)[C@@H]1N` [Example 86, 4-((5-((3S,4S)-4-amino-3-methyl-2-oxa-8-azaspiro[4.5]decan-8-yl)pyrazin-2-yl)thio)-N-benzyl-3-chloropicolinamide], the IC50 in test [1] (read-out: IC50 (PTPase aS say)) fell in the range of 3 to 100 nM.
Same read-out and setting: the figure for `COCCn1cnc2ccc(Sc3ncc(N4CCC5(CC4)Cc4ncsc4[C@H]5N)nc3N)c(Cl)c2c1=O` [Example 164, (S)-6-((3-amino-5-(6-amino-4,6-dihydrospiro[cyclopenta[d]thiazole-5,4′-piperidin]-1′-yl)pyrazin-2-yl)thio)-5-chloro-3-(2-methoxyethyl)quinazolin-4(31-1)-one] is less than 3 nM.
Consider `Cc1nc2ccc(Sc3cnc(N4CCC(C)(CN)CC4)cn3)c(Cl)c2c(=O)n1Cc1cccc(S(=O)(=O)F)c1` [Example 21, 3-((6-((5-(4-(aminomethyl)-4-methylpiperidin-1-yl)pyrazin-2-yl)thio)-5-chloro-2methyl-4-oxoquinazolin-3(4H)-yl)methyl)benzenesulfonyl fluoride], for which the IC50 in test [2] (setting [3]) fell in the range of 45 to 1500 nM.
For the compound `COCCn1cnc2ccc(Sc3cnc(N4CCC5(CC4)CO[C@@H](C)[C@H]5N)nn3)c(Cl)c2c1=O` [Example 183, 6-((3-((3S,4S)-4-amino-3-methyl-2-oxa-8-azaspiro[4.5]decan-8-yl)-1,2,4-triazin-6-yl)thio)-5-chloro-3-(2-methoxyethyl)quinazolin-4(3H)-one], in test [2] (setting [3]), the IC50 was more than 1500 nM.
With `C[C@@H]1OCC2(CCN(c3cnc(Sc4ccc5ncn(CCO)c(=O)c5c4Cl)cn3)CC2)[C@@H]1N` [Example 58, 6-((5-((3S,4S)-4-amino-3-methyl-2-oxa-8-azaspiro[4.5]decan-8-yl)pyrazin-2-yl)thio)-5-chloro-3-(2-hydroxyethyl)quinazolin-4(3H)-one], the IC50 in test [1] (read-out: IC50 (PTPase aS say)) was 3 to 100 nM.
Same read-out and setting: the figure for `N[C@H]1c2ccccc2CC12CCN(c1cnc(Sc3ccc4ncn(Cc5ccccc5)c(=O)c4c3Cl)cn1)CC2` [Example 100] is 3 to 100 nM.
